Consider three compounds from patent US8212051B2, “Process for the preparation of pure irbesartan” (Lek Pharmaceuticals, D.D., priority 2006, dated 2012).

Where a name gives a salt, the structure may show the parent alone.

Data set [1] in a line: Solubility in boiling acetone (amount of acetone needed to dissolve 1 g). Particulars: per 1 g substance. It counts as physicochemical.
Data set [2] is described as follows: Stability against degradation when dissolved in hot mixture of solvents and extracted. It counts as physicochemical. The note with it: salt dissolved in hot mixture of solvents and extracted; compared with purification via HCl salt.

`CCCCC1=NC2(CCCC2)C(=O)N1Cc1ccc(-c2ccccc2-c2nnn[nH]2)cc1` [irbesartan, 2-n-butyl-3-[[2′-(tetrazol-5-yl)biphenyl-4-yl]methyl]-1.3-diazaspiro[4.4]non-1-en-4-one]: in data set [1], the “amount of acetone needed to dissolve 1 g” value amounted to 100 mL.

`CCCCC1=NC2(CCCC2)C(=O)N1Cc1ccc(-c2ccccc2-c2nnn[nH]2)cc1` [irbesartan HCl]: the “amount of acetone needed to dissolve 1 g” value in data set [1] was 15 mL. As for `CCCCC1=NC2(CCCC2)C(=O)N1Cc1ccc(-c2ccccc2-c2nnn[nH]2)cc1` [irbesartan HBr, hydrobromide acid addition salt of 2-n-butyl-3-[[2′-(tetrazol-5-yl)biphenyl-4-yl]methyl]-1.3-diazaspiro[4.4]non-1-en-4-one], in data set [1], the “amount of acetone needed to dissolve 1 g” value was 6 mL. The stability against degradation entry in data set [2] is reported as “more stable against degradation”.
